# Measurements published in patent US20180340012A1, “METHODS AND CO[…] TO IMPROVING PROPERTIES OF PHARMACOLOGICAL AGENTS TARGETING NERVOUS SYSTEM” (University of Utah Research Foundation, priority 2006, published 2018).
# Assays:
# corneal kindling = test: Mouse corneal kindling acquisition; format: in vivo, CF#1 mice; details: 4 mg/kg i.p. twice daily
# Description: CF#1 mice were randomized to receive either vehicle (0.9% saline) or NAX-5055. Mice in the NAX-5055 group received two doses of NAX-5055 twelve (12 h) and 1 h prior to their first kindling stimulation. One hour (1 h) prior to each subsequent stimulation, mice in the NAX-5055 treated group received another dose of NAX-5055 (4 mg/kg, i.p.). Mice were stimulated twice daily for 16 days. Results are expressed as the mean seizure score per stimulation. As noted above, the results for the NAX-5055 treated mice segregated into two populations; i.e., sensitive (green line) and insensitive (blue line).
# Daily electrical stimulation via the cornea results in a stable kindled state within 15-20 days. This is an ideal model to initially assess the ability of selected galanin analogs to prevent kindling acquisition because the amount of peptide required is much lower than what is required for a rat kindling study. Those compounds found to be effective in preventing the acquisition of kindling are subsequently evaluated in a more traditional rat kindling model; i.e., amygdala kindled rat. For the proposed studies two groups of mice (n=8 mice per group) are randomized to receive either vehicle or peptide prior to each kindling stimulation. […] At the time to peak effect (obtained from the 6 Hz study), they are stimulated via corneal electrodes with a subconvulsive current (50 Hz, 3 mA, for 3.0 sec) and observed for the presence or absence of seizure activity. Seizure activity is scored according to the criteria established by Racine et al., (1972). Animals receive two stimulations per day until they display their first Stage 5 behavioral seizure and then once daily until they display stable secondarily generalized seizures (5 consecutive Stage 4-5 seizures). Peptide treatment continues in the experimental group until the point that the control mice become fully kindled. At this point, mice in both groups are permitted a one-week stimulus and treatment-free week. On the 8th day, mice in both groups are stimulated in the absence of peptide or vehicle and their seizure score recorded.
# The ability of the blood-brain-barrier penetrant galanin-based neuropeptide NAX-5055 to prevent the development of corneal kindling was studied in CF#1 mice. The mouse corneal kindling model is a non-intrusive animal model of partial epilepsy wherein mice receive an initially subconvulsive current (3 mA) for 3 seconds via corneal electrodes twice daily for several days. Vehicle treated mice usually require between 12-16 days to reach a stable Stage 5 seizure; i.e., a secondary generalized focal seizure. In the present study, 16 mice were randomized to one of two experimental groups; saline or NAX-5055. […] Following stimulation seizure activity was scored on a scale of 0-5 as established by Racine (1972).
# [1] = test system: secondarily generalized partial seizures; test: Hippocampal kindled rat model of partial epilepsy; format: in vivo; details: i.p.; decreases from 5
# sound-induced seizures = test: Frings audiogenic seizure-susceptible mouse model; format: in vivo
# Description: The two modified galanin analogs (GAL-BBB1 and GAL-BBB2) were administered i.p. to a group of Frings audiogenic seizure susceptible mice in a dose of 4 mg/kg. At various times after administration (i.e., 15, 30, 60, 120, and 240 min) each mouse was placed into a cylindrical test chamber fitted with an audio transducer and challenged with a high-intensity sound stimulus (110 dB, 11 KHz for 20 sec). Animals not displaying tonic hind-limb extension were considered protected. […] In a subsequent study, anticonvulsant efficacy was quantitated at the time to peak effect (i.e., 1 h) in a dose-response study.
# The ability of individual modified analogs to prevent seizures induced by sound in the AGS-susceptible Frings mouse model can be assessed at the time of peak effect (White et al., 1992). For this test, individual mice are placed into a plexiglass cylinder (diameter, 15 cm; height, 18 cm) fitted with an audio transducer (Model AS-ZC; FET Research and Development, Salt Lake City, Utah), and exposed to a sound stimulus of 110 decibels (11 KHz) delivered for 20 seconds. Sound-induced seizures are characterized by wild running followed by loss of righting reflex with forelimb and hindlimb tonic extension. Mice not displaying hindlimb tonic extension are considered protected.
# At various times after administration (i.e., 15, 30, 60, 120, and 240 min) each mouse was placed into a cylindrical test chamber fitted with an audio transducer and challenged with a high-intensity sound stimulus (110 dB, 11 KHz for 20 sec).
# [2] = test system: clonic (s.c. Metrazol) seizures; test: s.c. Metrazol seizure test; format: in vivo, mice; details: 4 mg/kg i.p., tested one hour later
# Description: Mice will be placed into individual plexiglas observation boxes and observed for 30 minutes for the presence of a minimal clonic seizure. Mice not displaying clonic seizure activity will be considered protected.
# mechanical allodynia = test: Sciatic nerve ligation model, mechanical allodynia; format: in vivo, rats
# Description: Just prior to surgery, rats are treated subcutaneously with 0.1 to 0.5 mg/kg of the long acting opiate buprenorphine. Rats are then anesthetized with pentobarbital and the depth of anesthesia monitored by their response to a tail pinch and observation of the depth of respiration. Sterile technique was used throughout the surgery.
# The upper thigh of each rat was shaved and wiped off with ethanol and betadine. A small incision was made in the skin and through the underlying muscle of the upper thigh until the sciatic nerve was exposed. The nerve was then separated from the surrounding connective tissue and slightly elevated by a pair of fine, curved forceps. Approximately ⅓ to ½ of the nerve was then tied off by passing a needle and nylon suture (7.0) through the nerve. The muscle and skin incision was then closed sutured separately with 5.0 suture and the animals were kept warm by placing on a thermostatically controlled heat blanket until they have recovered from the anesthesia. This procedure was conducted on the right side (ipsilateral) while a sham surgery was performed on the left hind leg (contralateral). The latter involves a similar procedure with the exception that the sciatic nerve on this side was only exposed and not ligated. Twelve hours post surgery, a second dose of buprenorphine was administered to minimize any discomfort from the surgical procedure. Rats were closely monitored daily for the development of infection or untoward effects of the surgery.
# After an appropriate time for recovery (e.g., 7-14 days) the animals were tested for the development of mechanical allodynia (pain response to a non-noxious stimulus). For this study, the animals placed in a bottomless plexiglass box placed on a wire mesh (¼″) platform. After a 30-60 minute acclimation period, a baseline mechanical sensitivity was determined. […] This procedure was repeated until a 50% threshold for withdrawal could be determined.
substance,measurement,setting,value
Sar-Trp-Thr-Leu-Asn-Ser-Ala-Gly-Tyr-Leu-Leu-Gly-Pro-Lys-Lys-(Lys-palm)-Lys-NH2 [NAX 5055],kindling acquisition,corneal kindling,can delay kindling acquisition
same,"more stimulations to reach Stage 2 and Stage 3 seizures, NAX-5055 sensitive group",corneal kindling,35-40%
same,"stimulations required to reach a Stage 1 seizure, NAX-5055 sensitive group",corneal kindling,two times more stimulations
same,mice of NAX-5055 sensitive group that reached Stage 5 seizures,corneal kindling; sensitive n=3 of 8,none
same,seizure score,[1],3
same,blocking sound-induced seizures,"sound-induced seizures; 4 mg/kg i.p., one hour after administration",effective
same,duration of anticonvulsant effect,"sound-induced seizures; 4 mg/kg, i.p.",between two and four hours
same,onset of anticonvulsant effect,"sound-induced seizures; 4 mg/kg, i.p.",≤ 30 min
same,anticonvulsant ED50 (approximate),"sound-induced seizures; given i.p., refers to Example 2",~3 mg/kg
same,median effective dose ED50 (95% confidence intervals),"sound-induced seizures; i.p., at time to peak effect 1 h, Probit analysis",3.2 (2.3−6.1) mg/kg
same,protection in s.c. Metrazol seizure test,[2],25%
same,potency compared with morphine,mechanical allodynia; 2 mg/kg i.p. vs 2 mg/kg morphine,equi-potent
same,potency compared with gabapentin,mechanical allodynia; 2 mg/kg i.p. vs 40 mg/kg gabapentin,several fold more potent
same,threshold for mechanical allodynia,"mechanical allodynia; 2 mg/kg i.p., 30 min to 6 h",time-dependent increase
